Measurements reported in patent US7709471B2, “Compounds” (AstraZeneca AB, priority 2006, dated 2010).

Legend:
recombinant Plk1 = recombinant Plk1 (Homo sapiens, UniProt P53350); assay: In Vitro Plk1 Enzyme Assay (SPA, GST-Cdc25C phosphorylation); assay type: biochemical; conditions: ATP 64 nM, 90 minutes, read-out: IC50 (Plk1 enzyme inhibition)
[1] = system: human colon tumour cell line HT29; assay: Cellular Assay (phosphohistone H3 Ser10 mitotic marker, HT29); assay type: cell-based; conditions: HT-29, 24 h, HT29 cells, read-out: IC50 (cellular assay, phosphohistone H3)

Sequence of recombinant Plk1 (P53350 whole entry): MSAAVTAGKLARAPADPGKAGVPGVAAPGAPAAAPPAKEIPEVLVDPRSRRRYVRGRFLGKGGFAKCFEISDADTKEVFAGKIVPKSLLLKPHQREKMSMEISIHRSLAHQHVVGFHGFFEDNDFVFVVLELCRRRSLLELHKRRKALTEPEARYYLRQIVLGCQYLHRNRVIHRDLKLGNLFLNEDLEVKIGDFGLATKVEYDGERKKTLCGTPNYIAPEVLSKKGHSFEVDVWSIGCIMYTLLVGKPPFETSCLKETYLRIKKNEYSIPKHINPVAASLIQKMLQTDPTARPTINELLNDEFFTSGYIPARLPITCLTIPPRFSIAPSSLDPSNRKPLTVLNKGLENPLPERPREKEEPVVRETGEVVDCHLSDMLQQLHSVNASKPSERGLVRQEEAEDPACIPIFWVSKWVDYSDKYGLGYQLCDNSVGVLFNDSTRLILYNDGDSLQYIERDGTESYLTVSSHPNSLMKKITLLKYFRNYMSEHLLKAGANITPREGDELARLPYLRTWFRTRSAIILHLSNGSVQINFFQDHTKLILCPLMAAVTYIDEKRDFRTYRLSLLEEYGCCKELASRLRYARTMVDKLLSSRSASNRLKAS

| IC50 (recombinant Plk1) [nM] | IC50 [1] [nM] | Structure (SMILES) |
| --- | --- | --- |
| < 300 | < 300 | CCN1CCC(=O)N(C)c2cnc(Nc3ccc(C(=O)NC4CCN(C)CC4)cc3OC)nc21 [Example 210, 4-[(6-ethyl-2-methyl-3-oxo-2,6,8,10-tetrazabicyclo[5.4.0]undeca-7,9,11-trien-9-yl)amino]-3-methoxy-N-(1-methyl-4-piperidyl)benzamide] |
| < 1000 | < 30000 | COc1cc(C(=O)NC2CCN(C)CC2)ccc1Nc1ncc2c(n1)N(CC(=N)OC(C)CC(C)C)CCC(=O)N2C (stereo not drawn) [Example 272, 3-methoxy-4-[[6-methyl-2-[(4-methylpentan-2-yloxycarbonimidoyl)methyl]-5-oxo-2,6,9,11-tetrazabicyclo[5.4.0]undeca-7,9,11-trien-10-yl]amino]-N-(1-methyl-4-piperidyl)benzamide] |
| < 100000 | < 300 | COc1cc(C(=O)Nc2cccnc2)ccc1Nc1ncc2c(n1)N(C1CCCC1)CCC(=O)N2C [Example 74, 4-[(6-cyclopentyl-2-methyl-3-oxo-2,6,8,10-tetrazabicyclo[5.4.0]undeca-8,10,12-trien-9-yl)amino]-3-methoxy-N-pyridin-3-yl-benzamide] |
| < 300 | < 300 | CN1CCC(NC(=O)c2ccc(Nc3ncc4c(n3)N(C3CCCC3)CCC(=O)N4C)c(F)c2)CC1 [Example 194, 4-[(6-cyclopentyl-2-methyl-3-oxo-2,6,8,10-tetrazabicyclo[5.4.0]undeca-8,10,12-trien-9-yl)amino]-3-fluoro-N-(1-methyl-4-piperidyl)benzamide] |
| < 300 | < 300 | COc1cc(C(=O)N[C@@H]2CCN(C)C2)ccc1Nc1ncc2c(n1)N(C1CCCC1)CCC(=O)N2C [Example 62, 4-[(6-cyclopentyl-2-methyl-3-oxo-2,6,8,10-tetrazabicyclo[5.4.0]undeca-8,10,12-trien-9-yl)amino]-3-methoxy-N-[(3R)-1-methylpyrrolidin-3-yl]benzamide] |
| < 100000 | < 1000 | CN1C(=O)CCN(C2CCCC2)c2nc(Nc3ccc(OCCN4CCOCC4)cc3)ncc21 [Example 135, 6-cyclopentyl-2-methyl-9-[[4-(2-morpholin-4-ylethoxy)phenyl]amino]-2,6,8,10-tetrazabicyclo[5.4.0]undeca-8,10,12-trien-3-one] |
| < 300 | < 300 | COc1cc(C(=O)NCCN(C)C)ccc1Nc1ncc2c(n1)N(C1CCCC1)CC1(CC1)C(=O)N2C [Example 387, 4-(9′-cyclopentyl-5′-methyl-6′-oxo-5′,6′,8′,9′-tetrahydrospiro[cyclopropane-1,7′-pyrimido[5,4-b][1,4]diazepine]-2′-ylamino)-N-(2-dimethylaminoethyl)-3-methoxy-benzamide] |
| < 1000 | < 30000 | Cc1ccc(CO)cc1Nc1ncc2c(n1)N(C1CCCC1)CCC(=O)N2C [Example 178, 6-cyclopentyl-9-[[5-(hydroxymethyl)-2-methyl-phenyl]amino]-2-methyl-2,6,8,10-tetrazabicyclo[5.4.0]undeca-8,10,12-trien-3-one] |
| < 100000 | < 300 | COc1cc(C(=O)NCC2CC2)ccc1Nc1ncc2c(n1)N(C1CCCC1)CCC(=O)N2C [Example 94, 4-[(6-cyclopentyl-2-methyl-3-oxo-2,6,8,10-tetrazabicyclo[5.4.0]undeca-8,10,12-trien-9-yl)amino]-N-(cyclopropylmethyl)-3-methoxy-benzamide] |
| < 100000 | < 30000 | COCCNS(=O)(=O)c1ccc(Nc2ncc3c(n2)N(C2CCCC2)CCC(=O)N3C)cc1 [Example 125, 4-[(6-cyclopentyl-2-methyl-3-oxo-2,6,8,10-tetrazabicyclo[5.4.0]undeca-8,10,12-trien-9-yl)amino]-N-(2-methoxyethyl)benzenesulfonamide] |
| < 1000 | < 30000 | CN1C(=O)CCN(C2CCCC2)c2nc(Nc3ccc4[nH]c(-c5cccnc5)nc4c3)ncc21 [Example 132, 6-cyclopentyl-2-methyl-9-[(2-pyridin-3-yl-1H-benzoimidazol-5-yl)amino]-2,6,8,10-tetrazabicyclo[5.4.0]undeca-8,10,12-trien-3-one] |
| < 300 | < 300 | COc1cc(C(N)=O)ccc1Nc1ncc2c(n1)N(C1CCCC1)CCC(=O)N2C [Example 92, 4-[(6-cyclopentyl-2-methyl-3-oxo-2,6,8,10-tetrazabicyclo[5.4.0]undeca-8,10,12-trien-9-yl)amino]-3-methoxy-benzamide] |
| < 100000 | < 30000 | CN1CCC(NC(=O)c2cnc(Nc3ncc4c(n3)N(C3CCCC3)CCC(=O)N4C)s2)CC1 [Example 263, 2-[(6-cyclopentyl-2-methyl-3-oxo-2,6,8,10-tetrazabicyclo[5.4.0]undeca-8,10,12-trien-9-yl)amino]-N-(1-methyl-4-piperidyl)1,3-thiazole-5-carboxamide] |
| < 300 | < 300 | COc1cc(C(=O)NC2CCN(C)CC2)c(F)cc1Nc1ncc2c(n1)N(C1CCCC1)CCC(=O)N2C [Example 48, 4-[(6-cyclopentyl-2-methyl-3-oxo-2,6,8,10-tetrazabicyclo[5.4.0]undeca-8,10,12-trien-9-yl)amino]-2-fluoro-5-methoxy-N-(1-methyl-4-piperidyl)benzamide] |
| < 300 | < 300 | COc1cc(C(=O)NCCCCN2CCCC2)ccc1Nc1ncc2c(n1)N(C1CCCC1)CCC(=O)N2C [Example 33, 4-[(6-cyclopentyl-2-methyl-3-oxo-2,6,8,10-tetrazabicyclo[5.4.0]undeca-8,10,12-trien-9-yl)amino]-3-methoxy-N-(4-pyrrolidin-1-ylbutyl)benzamide] |
| < 100000 | < 30000 | CN1C(=O)CCN(C2CCCC2)c2nc(Nc3ccc(CNC(=O)c4ccccn4)cc3)ncc21 [Example 133, N-[[4-[(6-cyclopentyl-2-methyl-3-oxo-2,6,8,10-tetrazabicyclo[5.4.0]undeca-8,10,12-trien-9-yl)amino]phenyl]methyl]pyridine-2-carboxamide] |
| < 300 | < 30000 | COc1cc(C(=O)NC2CCN(C)CC2)ccc1Nc1ncc2c(n1)N(Cc1ccoc1)CCC(=O)N2C [Example 231, 4-[[6-(3-furylmethyl)-2-methyl-3-oxo-2,6,8,10-tetrazabicyclo[5.4.0]undeca-8,10,12-trien-9-yl]amino]-3-methoxy-N-(1-methyl-4-piperidyl)benzamide] |
| < 300 | < 300 | COc1cc(C(=O)NC2CCN(C)CC2)ccc1Nc1ncc2c(n1)N(CC1CC1)CCC(=O)N2C [Example 213, 4-[[6-(cyclopropylmethyl)-2-methyl-3-oxo-2,6,8,10-tetrazabicyclo[5.4.0]undeca-8,10,12-trien-9-yl]amino]-3-methoxy-N-(1-methyl-4-piperidyl)benzamide] |
| < 1000 | < 300 | COCCN1CCC(NC(=O)c2ccc(Nc3ncc4c(n3)N(C3CCCC3)CC(C)(C)C(=O)N4C)c(OC)c2)CC1 [Example 244, 4-[(2-cyclopentyl-4,4,6-trimethyl-5-oxo-2,6,9,11-tetrazabicyclo[5.4.0]undeca-7,9,11-trien-10-yl)amino]-3-methoxy-N-[1-(2-methoxyethyl)-4-piperidyl]benzamide] |
| < 1000 | < 30000 | COc1cc(C(=O)NCCN2CCOCC2)ccc1Nc1ncc2c(n1)N(c1ccccc1)CCC(=O)N2C [Example 220, 3-methoxy-4-[(2-methyl-3-oxo-6-phenyl-2,6,8,10-tetrazabicyclo[5.4.0]undeca-8,10,12-trien-9-yl)amino]-N-(2-morpholin-4-ylethyl)benzamide] |
| < 100000 | < 300 | COc1cc(C(=O)NCc2ccccc2)ccc1Nc1ncc2c(n1)N(C1CCCC1)CCC(=O)N2C [Example 96, N-benzyl-4-[(6-cyclopentyl-2-methyl-3-oxo-2,6,8,10-tetrazabicyclo[5.4.0]undeca-8,10,12-trien-9-yl)amino]-3-methoxy-benzamide] |
| < 300 | < 30000 | CN1CCC(NC(=O)c2ccc(Nc3ncc4c(n3)N(C3CCCC3)CCC(=O)N4C)cn2)CC1 [Example 270, 5-[(6-cyclopentyl-2-methyl-3-oxo-2,6,8,10-tetrazabicyclo[5.4.0]undeca-8,10,12-trien-9-yl)amino]-N-(1-methyl-4-piperidyl)pyridine-2-carboxamide] |
| < 300 | < 1000 | CCOc1cc(C(=O)NC2CCN(C)CC2)ccc1Nc1ncc2c(n1)N(C(C)C)CCC(=O)N2C [Example 281, 3-ethoxy-4-[(6-methyl-5-oxo-2-propan-2-yl-2,6,9,11-tetrazabicyclo[5.4.0]undeca-7,9,11-trien-10-yl)amino]-N-(1-methyl-4-piperidyl)benzamide] |
| < 300 | < 300 | COc1cc(C(=O)NCCCCN(C)C)ccc1Nc1ncc2c(n1)N(C1CCCC1)CCC(=O)N2C [Example 21, 4-[(6-cyclopentyl-2-methyl-3-oxo-2,6,8,10-tetrazabicyclo[5.4.0]undeca-8,10,12-trien-9-yl)amino]-N-(4-dimethylaminobutyl)-3-methoxy-benzamide] |
| < 1000 | < 30000 | CCc1ccccc1Nc1ncc2c(n1)N(C1CCCC1)CCC(=O)N2C [Example 143, 6-cyclopentyl-9-[(2-ethylphenyl)amino]-2-methyl-2,6,8,10-tetrazabicyclo[5.4.0]undeca-8,10,12-trien-3-one] |

| Structure (SMILES) | IC50 (recombinant Plk1) [nM] | IC50 [1] [nM] |
| --- | --- | --- |
| COc1cc(C(=O)NC2CN3CCC2CC3)ccc1Nc1ncc2c(n1)N(C1CCCC1)CCC(=O)N2C (stereo not drawn) [Example 22, N-(1-azabicyclo[2.2.2]oct-8-yl)-4-[(6-cyclopentyl-2-methyl-3-oxo-2,6,8,10-tetrazabicyclo[5.4.0]undeca-8,10,12-trien-9-yl)amino]-3-methoxy-benzamide] | < 300 | < 300 |
| COc1cc(C(=O)NC2C[C@H]3CCC[C@@H](C2)N3C)ccc1Nc1ncc2c(n1)N(C1CCCC1)CC1(CC1)C(=O)N2C (stereo partly drawn) [Example 385, 4-(9′-cyclopentyl-5′-methyl-6′-oxo-5′,6′,8′,9′-tetrahydrospiro[cyclopropane-1,7′-pyrimido[5,4-b][1,4]diazepine]-2′-ylamino)-3-methoxy-N-[(1S,5R)-9-methyl-9-azabicyclo[3.3.1]non-7-yl]benzamide] | < 300 | < 300 |
